Source: US20090203062A1, “Method For Identifying And/Or Quantifying Anti-Infective Compounds” (priority 2005, published 2009)

Columns and labels:
Klebsiella pneumoniae [1] = assay: Klebsiella pneumoniae murine pulmonary infection model; format: in vivo; conditions: 24 h post-infection, female Balb/cN mice
Experimental: Klebsiella pulmonary infection model was performed by intranasal instillation of 7-8 weeks old female Balb/cN with 20 μl containing […]. Compound or cefotaxime were injected intraperitoneally every 6 hours from the time of infection at the indicated doses. In vivo efficacy was assessed by measuring colony forming units (CFU) loads in the lungs at 24 h hours. Data analysis was performed using GraphPad Software Inc, San Diego, Calif., USA. Lane 1 is the initial load at time zero of the infection. Lane 2 is the load at 24 hours post-infection of mice treated with the vehicle only.

Klebsiella pneumoniae [2] = conditions: Tetrahymena pyriformis present; compared with the antibiotic activity IC50; FIG. 9
Description: Preparation of SM no glucose (SM-) and Tetrahymena Medium is as described in example 1. […] Strains description Same Klebsiella pneumoniae strain is used as in example 1. […] Preparation of Tetrahymena pyriformis (Tp): The same Tp is used as in example 1. The day of the screen, resuspend the Tp cells in SM- and distribute Tp cells in the 384 well plates. […] Liquid dispenser for medium distribution Fill the same number of test plates as above with SM- with the liquid dispenser plate filler. (To test the antibiotic activity of the compounds). […] Description of the mother plate of compounds Each mother plate containing 24 columns of compounds is composed of 4 control columns (1, 12, 13 and 24) of DMSO and 320 wells of compounds. The DMSO columns have to be arranged according to the library. […] Transfer of library compounds with the 384 pin replicator. A test plate for quantifying anti-virulence activity contains Tp solution. A test plate for quantifying antibiotic activity contains SM-. […]
Tp, Klebsiella pneumoniae, compound are prepared as described in example 2 and incubated in a matrix containing 384 wells (12×24) wells at 35° C. in humidity saturated incubator. […] Mutations or compound affecting pathogenicity could be assessed in terms of phenotype strength and potency, respectively with decreasing concentration of Tp.

C=CCSc1nnc(C)c(O)n1 [3-(allylsulfanyl)-5-hydroxy-6-methyl-1,2,4-triazine]
reduction of CFU load in the lungs (Klebsiella pneumoniae [1]; 225 mg/kg/day intraperitoneally every 6 hours): 4 Log

CO/N=C(\C(=O)N[C@@H]1C(=O)N2C(C(=O)O)=C(COC(C)=O)CS[C@H]12)c1csc(N)n1 [cefotaxime]
reduction of CFU load in the lungs (Klebsiella pneumoniae [1]; 37.5 mg/kg/day intraperitoneally every 6 hours): 4 Log

COc1cc(Cc2cnc(N)nc2N)cc(OC)c1OC [trimethoprim]
concentration at which the avirulence assay detected the antibiotic, lower than the IC50 of the antibiotic (sub-MIC effect) (Klebsiella pneumoniae [2]): 2 Log
